# Key:
# Assay type in all cases: in vivo, Kunming mice
# [1] = Fasting blood glucose level by glucometer in D-galactose-injected mice; conditions: for blood glucose level decreased compared to the non-supplement group: 14th week
# Experimental: (§1) Six-week-old, male, Kunming mice, weighed about 30±2 g, were obtained from Cavens Lab Animal (Changzhou, China) and housed in a controlled room (25±2° C., 60% relative humidity, 12 h light/dark cycle) with free access to water and standard laboratory diet. After an acclimation period (1 week), mice were randomly divided into 3 groups of 9 animals. Choose the mice's back skin as the experimental observation area, use a razor to shave off the back hair of the mice. Apply 5% sodium sulfide solution to the back of the mice to remove the hair. Then all mice were injected subcutaneously with the same volume of D-galactose (1000 mg/kg), once a day for 8 weeks. During the entire process of the experiment, the daily food intake and weight of mice were recorded every day, and the D-galactose injection dose was adjusted following the weight change. The 3 groups of 9 animals were (1) non-supplement group (Con, Group 1); (2) DHB supplement group (DHB, 100 mg/kg, Group 2); (3) DHB supplement group (DHB, 200 mg/kg, Group 3). Mice in group 2 and group 3 were injected subcutaneously (s.c.) into their back skins with the corresponding concentrations of DHB before each major meal once daily for 6 weeks. When all mice were on fasting, collect approximately 10 μL of blood by the tail nick for 3 times, at the beginning of the trial (0 week), after the D-galactose injection (8th week), and at the end of the trial (14th week). Use the glucometer to measure the glucose level.
# H2O2 = H2O2 content in skin homogenate of D-galactose-injected mice; conditions: 14th week
# Experimental: as §1, with “[…] The levels of H2O2, MDA, SOD, CAT, GSH, and GSH-Px” for “Mice”, “the skin were detected with relative kits as reference. […] Quantitative polymerase chain reaction (QPCR)” for “group 2”, “western blot methods” for “group 3”, “used” for “injected subcutaneously (s.c.) into their back skins with the corresponding concentrations of DHB before each major meal once daily for 6 weeks. When all mice were on fasting, collect approximately 10 μL of blood by the tail nick for 3 times, at the beginning of the trial (0 week), after the D-galactose injection (8th week), and at the end of the trial (14th week). Use the glucometer”, “expression of MMP-1 in the skin.” for “glucose level.”
# MDA = MDA content in skin of D-galactose-injected mice (kit/ELISA); conditions: group 3, DHB 200 mg/kg s.c., 14th week
# Experimental: as §1, with “[…] The levels of H2O2, MDA, SOD, CAT, GSH, and GSH-Px” for “Mice”, “the skin were detected with relative kits as reference. […] Quantitative polymerase chain reaction (QPCR)” for “group 2”, “western blot methods” for “group 3”, “used” for “injected subcutaneously (s.c.) into their back skins with the corresponding concentrations of DHB before each major meal once daily for 6 weeks. When all mice were on fasting, collect approximately 10 μL of blood by the tail nick for 3 times, at the beginning of the trial (0 week), after the D-galactose injection (8th week), and at the end of the trial (14th week). Use the glucometer”, “expression of MMP-1 in the skin.” for “glucose level.”
# SOD = SOD activity in skin of D-galactose-injected mice; conditions: 14th week
# Experimental: as §1, with “[…] The levels of H2O2, MDA, SOD, CAT, GSH, and GSH-Px” for “Mice”, “the skin were detected with relative kits as reference. […] Quantitative polymerase chain reaction (QPCR)” for “group 2”, “western blot methods” for “group 3”, “used” for “injected subcutaneously (s.c.) into their back skins with the corresponding concentrations of DHB before each major meal once daily for 6 weeks. When all mice were on fasting, collect approximately 10 μL of blood by the tail nick for 3 times, at the beginning of the trial (0 week), after the D-galactose injection (8th week), and at the end of the trial (14th week). Use the glucometer”, “expression of MMP-1 in the skin.” for “glucose level.”
# CAT = CAT activity in skin of D-galactose-injected mice; conditions: DHB groups (100 and 200 mg/kg s.c.), 14th week
# Experimental: as §1, with “[…] The levels of H2O2, MDA, SOD, CAT, GSH, and GSH-Px” for “Mice”, “the skin were detected with relative kits as reference. […] Quantitative polymerase chain reaction (QPCR)” for “group 2”, “western blot methods” for “group 3”, “used” for “injected subcutaneously (s.c.) into their back skins with the corresponding concentrations of DHB before each major meal once daily for 6 weeks. When all mice were on fasting, collect approximately 10 μL of blood by the tail nick for 3 times, at the beginning of the trial (0 week), after the D-galactose injection (8th week), and at the end of the trial (14th week). Use the glucometer”, “expression of MMP-1 in the skin.” for “glucose level.”
# GSH = GSH activity in skin of D-galactose-injected mice; conditions: DHB groups (100 and 200 mg/kg s.c.), 14th week
# Experimental: as §1, with “[…] The levels of H2O2, MDA, SOD, CAT, GSH, and GSH-Px” for “Mice”, “the skin were detected with relative kits as reference. […] Quantitative polymerase chain reaction (QPCR)” for “group 2”, “western blot methods” for “group 3”, “used” for “injected subcutaneously (s.c.) into their back skins with the corresponding concentrations of DHB before each major meal once daily for 6 weeks. When all mice were on fasting, collect approximately 10 μL of blood by the tail nick for 3 times, at the beginning of the trial (0 week), after the D-galactose injection (8th week), and at the end of the trial (14th week). Use the glucometer”, “expression of MMP-1 in the skin.” for “glucose level.”
# GSH-Px = GSH-Px activity in skin of D-galactose-injected mice; conditions: 14th week
# Experimental: as §1, with “[…] The levels of H2O2, MDA, SOD, CAT, GSH, and GSH-Px” for “Mice”, “the skin were detected with relative kits as reference. […] Quantitative polymerase chain reaction (QPCR)” for “group 2”, “western blot methods” for “group 3”, “used” for “injected subcutaneously (s.c.) into their back skins with the corresponding concentrations of DHB before each major meal once daily for 6 weeks. When all mice were on fasting, collect approximately 10 μL of blood by the tail nick for 3 times, at the beginning of the trial (0 week), after the D-galactose injection (8th week), and at the end of the trial (14th week). Use the glucometer”, “expression of MMP-1 in the skin.” for “glucose level.”
# MMP-1 = MMP-1 expression in skin (QPCR and western blot) of D-galactose-injected mice; conditions: 14th week
# Experimental: as §1, with “[…] The levels of H2O2, MDA, SOD, CAT, GSH, and GSH-Px” for “Mice”, “the skin were detected with relative kits as reference. […] Quantitative polymerase chain reaction (QPCR)” for “group 2”, “western blot methods” for “group 3”, “used” for “injected subcutaneously (s.c.) into their back skins with the corresponding concentrations of DHB before each major meal once daily for 6 weeks. When all mice were on fasting, collect approximately 10 μL of blood by the tail nick for 3 times, at the beginning of the trial (0 week), after the D-galactose injection (8th week), and at the end of the trial (14th week). Use the glucometer”, “expression of MMP-1 in the skin.” for “glucose level.”
# [2] = tested on: skin epidermis and dermis; assay: H&E staining, quantitation of skin epidermis and dermis in D-galactose-injected mice; conditions: 14th week
# Experimental: Six-week-old, male, Kunming mice, weighed about 30±2 g, were obtained from Cavens Lab Animal (Changzhou, China) and housed in a controlled room (25±2° C., 60% relative humidity, 12 h light/dark cycle) with free access to water and standard laboratory diet. After an acclimation period (1 week), mice were randomly divided into 3 groups of 9 animals. Choose the mice's back skin as the experimental observation area, use a razor to shave off the back hair of the mice. Apply 5% sodium sulfide solution to the back of the mice to remove the hair. Then all mice were injected subcutaneously with the same volume of D-galactose (1000 mg/kg), once a day for 8 weeks. During the entire process of the experiment, the daily food intake and weight of mice were recorded every day, and the D-galactose injection dose was adjusted following the weight change. The 3 groups of 9 animals were (1) non-supplement group (Con, Group 1); (2) DHB supplement group (DHB, 100 mg/kg, Group 2); (3) DHB supplement group (DHB, 200 mg/kg, Group 3). Mice in group 2 and group 3 were injected subcutaneously (s.c.) into their back skins with the corresponding concentrations of DHB before each major meal once daily for 6 weeks. All mice were sacrificed following 6 weeks at the end of the experiment. The skin tissue was divided into three parts, the first part was stored at −80° C. until assays were performed, the second part was immediately collected, weighed and homogenized (4° C.; 3500 rpm for 15 min) for biochemical and histological analyses, and the third part was fixed in 10% formalin until further use. Hematoxylin-eosin staining (H&E) and Masson staining were performed on skin samples. Skins were fixed in 10% formalin 48 h at room temperature and paraffin-embedded afterward. With H&E staining, skins were sliced into 4 μm, dehydrated of gradient ethanol, and stained with hematoxylin and eosin. For Masson staining, sliced skins were stained with a Masson kit as the instruction said. H&E staining to observe the skin epidermis and dermis structure change and analyze stained collagen fibers by Image-Pro Plus 6.0 in the perspective of 400 times to detect the percentage of collagen fibers area. To further examine the content of skin collagen fibers, this was determined by Masson's staining. Then quantitation of skin epidermis and dermis, and collagen were calculated based on the results of observation.
# skin collagen fibers = assay: Masson staining, quantification of skin collagen fibers in D-galactose-injected mice; conditions: 14th week
# Experimental: as §1, with “[…] To further examine the content of skin collagen fibers, this was determined by Masson's staining. Then quantitation of skin epidermis” for “Mice in group 2”, “dermis, and collagen” for “group 3”, “calculated based on” for “injected subcutaneously (s.c.) into their back skins with”, “results” for “corresponding concentrations”, “observation.” for “DHB before each major meal once daily for 6 weeks. When all mice were on fasting, collect approximately 10 μL of blood by the tail nick for 3 times, at the beginning of the trial (0 week), after the D-galactose injection (8th week), and at the end of the trial (14th week). Use the glucometer to measure the glucose level.”
# [3] = DHB groups (100 and 200 mg/kg s.c.)
# [4] = DHB supplemented groups (100 and 200 mg/kg s.c.)
structure (smiles),measurement,setting,value
"COc1ccc2c(c1OC)CN1CCc3cc4c(cc3C1=C2)OCO4 [DHB, Dihydroberberine]",blood glucose levels after supplementation,[1]; [3],decreased significantly
same,blood glucose level decreased compared to the non-supplement group,"[1]; group 2, DHB 100 mg/kg s.c. once daily for 6 weeks",about 39%
same,blood glucose level decreased compared to the non-supplement group,"[1]; group 3, DHB 200 mg/kg s.c. once daily for 6 weeks",~44%
same,H2O2 content decreased compared to the non-supplement group,"H2O2; group 2, DHB 100 mg/kg s.c.",about 33%
same,H2O2 content decreased compared to the non-supplement group,"H2O2; group 3, DHB 200 mg/kg s.c.",~58%
same,content of MDA lower than in the control group,MDA,63%
same,SOD activity after DHB supplementation,SOD; [3],significantly improved
same,SOD increase compared to non-supplementation group,"SOD; group 3, DHB 200 mg/kg s.c.",about 2.9 times
same,CAT activity after DHB supplementation,CAT,significantly improved
same,GSH activity after DHB supplementation,GSH,significantly improved
same,GSH-Px activity after DHB supplementation,GSH-Px; [3],significantly improved
same,GASH-Px increase compared to non-supplementation group,"GSH-Px; group 3, DHB 200 mg/kg s.c.",~1.8 times
same,MMP-1 expression reduced compared to non-supplement group,"MMP-1; group 2, DHB 100 mg/kg s.c.",about 23%
same,MMP-1 expression reduced compared to non-supplement group,"MMP-1; group 3, DHB 200 mg/kg s.c.",about 51%
same,dermal thickness vs control group,[2]; [4],significant thicker
same,epidermal thickness vs control group,[2]; [4],significant thicker
same,prevention or reduction of dermal thickness decrease,"[2]; group 3, DHB 200 mg/kg s.c.",78%
same,prevention or reduction of epidermal thickness decrease,"[2]; group 3, DHB 200 mg/kg s.c.",72%
same,contents of collagen in the skin tissue compared with the control group,skin collagen fibers; DHB supplement groups (100 and 200 mg/kg s.c.),significantly higher
same,"content of collagen in the skin tissue, higher than control group","skin collagen fibers; higher dose group, DHB 200 mg/kg s.c.",2.2 times

# — patent US12458631B2, “Use of dihydroberberine or its derivatives for anti-glycation” (NANJING NUTRABUILDING BIO-TECH CO., LTD., priority 2022, dated 2025)
